MIC and Stability in solution data for one molecule are collected here from patent US6399086B1, “Pharmaceutical preparations for the controlled release of beta-lactam antibiotics” (Yissum Research Development Company of the Hebrew …, priority 1997, dated 2002).

One series concerns Staphylococcus aureus. The conditions noted are these: cited from earlier work.
The next series concerns Haemophilus influenza. Conditions: cited from earlier work.
The subject of the next series is Streptococci pneumoniae. The conditions noted are these: cited from earlier work.
Another series relates to Enterococcus faecalis. Conditions: cited from earlier work.
The subject of the next series is Streptococci group A. Conditions: cited from earlier work.
Series [1] is described as follows: Stability of active agent in the dissolution medium. It counts as physicochemical. The conditions noted are these: 37° C. The procedure: Determination of Stability of active Agent in the Dissolution Medium
Following 1, 2, 4, 6, 8 and 24 hrs the absorption profile of the drug between 200 nm and 300 nm was determined and compared with the absorption profile of the solutions before storage.

With `CC1(C)S[C@@H]2[C@H](NC(=O)[C@H](N)c3ccc(O)cc3)C(=O)N2[C@H]1C(=O)O` [Amoxicillin, amoxicillin trihydrate], the MIC with Staphylococcus aureus is 0.1 mg/L; with Haemophilus influenza, 0.25 mg/L; with Streptococci pneumoniae, 0.02 mg/L; in the series on Enterococcus faecalis it was 0.5 mg/L; in the series with Streptococci group A, 0.01 mg/L. The Stability in solution result in series [1] (pH=1.2, after 1hr) is given as “deterioration occurred”; in series [1] (pH=2, after 6 hrs), “stable”; in series [1] (pH=6.8, after 24 hrs) it was “stable”; in series [1] (pH=7.4, after 24 hrs), “stable”.
